Holding throughout (test): NCI-60 cell line screen, 48 h
The test system of test [1] is MOLT-4 leukemia.
Test [2] deals with OVCAR-3 ovarian.
Test [3] concerns KM12 colon.
The subject of test [4] is HCC-2998 colon.
Test [5] deals with DU-145 prostate.
Test [6] concerns HL-60(TB) leukemia.
Test [7] has as its system NCI-H460 lung.
In test [8] the test system is U251 CNS.
Test [9] has as its system HOP-62 NSCLC.
Test [10] deals with LOX IMVI melanoma.

Where “and” joins values, the source holds several entries; their conditions need not be identical. Identical values can stand only once.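 Cultured in 96-well plates, cells were exposed to test compound for 48 hours across five concentrations. The concentration for 50% growth inhibition is given as GI50. The concentration for full growth arrest is given as TGI.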 Where a SMILES comes first, the peptide text is derived from it. [ ]: non-standard residue; d: D form. The star is where a group is joined. ξ: configuration not given here. ξF = NC(Cc1ccccc1)C(=O)O; Cbz = O=C(OCc1ccccc1)*; Aib = CC(C)(N)C(=O)O; NHNH2 = NN*

In the case of `CC(=O)Nc1c(S(=O)(=O)c2ccccc2)c(C)c(C)n1CCN(C)C`, the TGI in test [1], in test [2], in test [3], in [4], in test [5] and in [6] was > 100 µM in each case. The TGI in test [7] and in test [8] was > 100 µM in each case.
For `CC(=O)C1=C(C)N2C(=NC3=C(CCc4ccccc43)C2c2ccc(F)cc2)S1` (stereo not drawn), the TGI in test [1] is 6.54 µM; in [2], > 100 µM; in test [3], > 100 µM; in test [4] it was > 100 µM; in test [5], > 100 µM; in test [6] it was 92.4 µM. Also, the TGI in test [9], in [8] and in [10] was > 100 µM throughout.
As for `COC(=O)C(N)CCCC(N)C(=O)NC(C)C(=O)NC(CCC(=O)NCCNCCNc1c2ccccc2nc2cccc([N+](=O)[O-])c12)C(N)=O` (stereo not drawn), the TGI was > 100 µM in test [1]; 47.7 µM in test [2]; 67.2 µM in test [3]; 34.2 µM in [4]; > 66.1 µM in test [5]; 55 µM in [7]. Also, the values for the TGI in test [9], in [8] and in test [10] were 53.7 µM, > 41.1 µM and 43 µM, respectively.
Consider `N#CC(C(=O)c1cccnc1Cl)c1nc2cc(C(F)(F)F)ccc2s1` (stereo not drawn), for which the TGI in [1], in [2], in test [3], in test [5], in [7] and in test [9] was > 100 µM in each case. Moreover, the TGI in test [8] and in test [10] was > 100 µM each time.
On to `CC(Nc1ncc2c(n1)-c1ccccc1OC2)C(=O)O` (stereo not drawn), for which the TGI in test [1] is > 100 µM; in [2], > 100 µM; in test [3], > 100 µM; in test [5], > 100 µM; in test [6], 26.1 µM; in [7] it was > 100 µM. Besides, the TGI in test [9], in test [8] and in test [10] was > 100 µM throughout.
Turning to `CCOC(=O)c1c[nH]c2c(Sc3ccccc3)nccc2c1=O`, the TGI in [1] is > 100 µM; in test [2], > 100 µM; in test [3], > 100 µM; in [5] it was > 100 µM; in [6] it was 83.2 µM; in test [7], > 100 µM. For the same molecule, the TGI in [9], in test [8] and in test [10] was > 100 µM in each case.
In the case of `O=C1/C(=C\Oc2ccc(F)cc2)N2CCC1CC2`, the TGI was > 100 µM in test [1]; > 100 µM in test [2]; 36.7 µM in test [5]; > 100 µM in test [6]; > 100 µM in [9]; > 100 µM in test [8]. Also, the TGI in [10] was > 100 µM.
`Oc1ccc(O)c(CNc2ccc(C(O)C(F)(F)F)cc2)c1` (stereo not drawn): the TGI in [1] worked out at 29.7 µM; in test [2], 15.4 µM; in [5], 28.5 µM; in [6], 16.4 µM; in test [7], 47.3 µM; in test [9], 43 µM. The TGI was > 100 µM in test [8] and 32.2 µM in test [10].
With `CC(C)(O)/C=C\P(=O)(O)O`, the TGI in test [2], in [3], in test [4], in [5], in test [7] and in [9] was > 100 µM each time. Moreover, the TGI in [8] and in test [10] was > 100 µM each time.
For `O=c1[nH]c(=O)n(COCc2ccccc2)c2ccsc12`, the TGI in test [1], in [3], in test [4], in test [5], in test [7] and in test [9] was > 100 µM each time. Also, the TGI in test [8] and in [10] was > 100 µM in each case.
Turning to `O=[N+]([O-])c1cccc2nc3ccccc3c(NCCCn3ccnc3[N+](=O)[O-])c12`, the GI50 in [2] is 0.0122 µM. In addition, the TGI was 0.0178 µM and 0.0633 µM in [2]; 0.000515 µM in [4]; 0.0168 µM and 0.0332 µM in [6]; 0.0137 µM in test [7]; 0.143 µM in test [9]; 0.00178 µM in test [8]. In addition, in test [10], the TGI is 0.13 µM and 0.0216 µM.
`C#C[C@]1(O)CC[C@H]2[C@@H]3CCC4=C/C(=N/OCCN(C)C)CC[C@]4(C)[C@H]3CC[C@@]21C`: the TGI in test [1] was > 100 µM; in test [2] it was 65.2 µM; in test [3], > 100 µM; in test [4] it was > 100 µM; in [5] it was > 100 µM; in [7], > 100 µM. Further, the TGI in test [9], in [8] and in test [10] was > 100 µM each time.
For `CCCNC(=S)/N=C/c1c(O)cc(C)oc1=O`, the TGI in test [1], in [2], in [3], in [4], in test [5] and in [7] was > 100 µM throughout. In addition, the TGI in test [9], in test [8] and in [10] was > 100 µM throughout.
Regarding `COc1cc(NS(C)(=O)=O)ccc1Nc1cc[nH]c2ccc3nccc3c12`, the TGI in test [2] came to 29.4 µM; in test [3] it was 28.2 µM; in [5] it was 27.7 µM; in test [6] it was 53.2 µM; in test [7] it was 34.5 µM; in test [9] it was 30.6 µM. The TGI came out at 27.3 µM in test [8] and 36 µM in test [10].
Regarding `O=C(O)CCCC(=O)Nn1c(Cc2ccc(Cl)cc2)n[nH]c1=O`, the TGI in test [1], in test [2], in test [3], in test [5], in test [6] and in test [9] was > 100 µM each time. For the same molecule, the TGI in [8] and in test [10] was > 100 µM throughout.
Turning to `O=C1C[C@H](c2ccccc2)O[C@@H](c2ccccc2)C1`, the TGI in test [1], in test [2], in test [3], in test [4], in test [5] and in test [7] was > 100 µM in each case. Besides, the TGI in test [9], in [8] and in test [10] was > 100 µM each time.
As for `COC(=O)C(NC(=O)C(CC(=O)OC(C)(C)C)NC(=O)OC(C)(C)C)C(O)c1ccccc1` (stereo not drawn), the TGI in test [1], in test [2], in test [3], in test [5], in test [7] and in test [9] was > 100 µM throughout. The TGI in test [8] and in test [10] was > 100 µM throughout.
In the case of `O=C1NC(N2CCOCC2)=N/C1=C\c1ccc(Cl)cc1`, the TGI in [1], in [2], in test [3], in [4], in [5] and in test [6] was > 100 µM in each case. For the same molecule, the TGI in test [9], in [8] and in test [10] was > 100 µM throughout.
Take `CC(C)=CCC[C@]1(C)C=Cc2c(O)c3c(c(CC=C(C)C)c2O1)O[C@]12C(=C[C@@H]4CC1C(C)(C)O[C@@]2(C/C=C(/C)C(=O)O)C4=O)C3=O`: the TGI amounted to 1.8 µM in test [1]; 2.67 µM in test [2]; 2.25 µM in [3]; 2.81 µM in test [4]; 0.706 µM in test [6]; 3.27 µM in [7]. For the same molecule, the TGI was 3.11 µM in test [9], 3.31 µM in test [8] and 4.95 µM in test [10].
`CCc1n[nH]c(=O)n1/N=C/c1ccccc1O`: the TGI in test [1], in [2], in test [3], in test [4], in test [5] and in test [9] was > 100 µM each time. The TGI in test [8] and in test [10] was > 100 µM in each case.
As to `COC(=O)C1CCC(=O)N1CN(C(C)=O)c1ccccc1Cl` (stereo not drawn), the TGI in test [1], in test [2], in test [3], in test [4], in [5] and in [7] was > 100 µM each time. For the same molecule, the TGI in [9], in test [8] and in [10] was > 100 µM throughout.
Turning to `CC(C)(NC(=O)OCc1ccccc1)C(=O)NC(Cc1ccccc1)C(=O)NN` (stereo not drawn) (Cbz-[Aib]-[ξF]-NHNH2), the TGI in [1], in test [2], in test [3], in test [5], in test [7] and in test [9] was > 100 µM throughout. Moreover, the TGI in test [8] and in [10] was > 100 µM each time.
For the molecule `C[C@@H](c1ccccc1)n1c(N)c(-c2ccccn2)c2ccc([N+](=O)[O-])cc2c1=O`, the TGI in test [3], in test [4], in [5], in [6], in [7] and in test [8] was > 100 µM throughout. Also, in test [10], the TGI was > 100 µM.
As for `O=c1oc2ccccc2nc1/C=C(\O)c1ccc(Cl)cc1`, the TGI in [1], in test [2], in test [3], in test [4], in test [5] and in test [7] was > 100 µM each time. Also, the TGI in [9] and in [8] was > 100 µM throughout.
Consider `CC1(C)O[C@@H]([C@H](O)CO)[C@H](O)[C@@H](C2SCCCS2)O1`, for which the TGI in test [2], in test [3], in [4], in test [5], in test [7] and in test [9] was > 100 µM each time. The TGI in [8] is > 100 µM.
Turning to `S=c1[nH]nc(CNc2ccc(-c3n[nH]c(=S)n3-c3ccc(Cl)cc3)cc2)n1-c1ccc(Cl)cc1`, the TGI in test [1] was > 100 µM; in test [3], 44 µM; in [4], > 100 µM; in test [5], 71.1 µM; in [7], > 100 µM; in test [9], 36.6 µM. The TGI in test [8] is > 100 µM.
Take `c1ccc([P+](CCSCCSCC[P+](c2ccccc2)(c2ccccc2)c2ccccc2)(c2ccccc2)c2ccccc2)cc1`: the TGI in test [1], in test [2], in test [3], in test [4], in test [5] and in test [6] was > 100 µM in each case. For the same molecule, the TGI in [7], in [9] and in test [8] was > 100 µM in each case.
Regarding `CCOC(=O)c1nc2ccc(C(F)(F)F)cc2nc1NCc1ccc(OC)cc1`, the TGI in test [1], in test [2], in test [3], in test [7], in [9] and in test [8] was > 100 µM in each case. Also, the TGI in test [10] is > 100 µM.
For `COc1ccc(N=N/C(=N/NC(=O)c2ccc(C)cc2)c2ccc(N(CCC#N)CCC#N)cc2OC)cc1`, the TGI in test [1], in test [2], in test [3], in test [4], in [5] and in [7] was > 100 µM in each case. Besides, the TGI in test [9], in test [8] and in test [10] was > 100 µM each time.
Take `N#Cc1nc(CCN2C(=O)c3ccccc3C2=O)oc1N`: the TGI in test [1], in [2], in test [3], in test [4], in test [5] and in test [7] was > 100 µM each time. Further, the TGI in [9], in test [8] and in test [10] was > 100 µM in each case.
